Laboratory results reported in patent publication US7964643B2, “Aryl alkyl sulfonamides as therapeutic agents for the treatment of bone conditions” (The University Court of the University of Aberdeen, priority 2004, dated 2011).

What was measured:
osteoclast precursors = assay: Murine co-culture system, osteoclast formation (osteoclast number by TRAcP staining); type: cell-based; conditions: Mus musculus, after 72 hours exposure, FIG. 2, read-out: IC50 against osteoclast precursors (FIG. 2)
Protocol: The first model system, the murine co-culture system, studies the formation of osteoclasts from precursors present in the bone marrow. The number of osteoclasts and the amount of dentine resorption was measured.
Osteoclast formation and activity was studied using an adaptation (see, e.g., van't H of & Ralston, 1997) of the osteoblast-bone marrow co-culture assay originally described by Takahashi et al., 1988.
Co-Culture Methods. Co-culture (see, e.g., Van't H of et al., 1997) is a method to study the formation of osteoclasts from their precursors. In this assay, osteoblasts were obtained from the calvaria of 2-3 day old neonatal mice. […] At the end of the culture osteoclasts were identified by TRAcP staining and the resorption activity was measured in the same manner as for rabbit osteoclasts.
Osteoblast Plating. […] The cells were counted and then seeded in a 96 well plated containing dentine slices, at 8×10^3 cells per well in 100 μl medium containing 1000× dilution of stock 1,25-dihydroxyvitamin D3 (final conc. 10 nM/well) to stimulate the expression of RANKL and cultured overnight. […]
More specifically, the femurs and tibia were dissected from 2-3 adult C57/bl6 mice (3-6 months old) and the surrounding tissue was removed. […] The bone marrow cells were counted and then added to the 96 well plate containing the osteoblasts at 2×10^5 cells/well in 50 μL medium. […]

[1] = system: J774 macrophage cell line; assay: Alamar Blue macrophage J774 viability assay; type: cell-based; conditions: Mus musculus, J774, 72 h, 72 hours culture with compound, Alamar Blue, read-out: IC50 (J774)
Protocol: Initial screening of candidate compounds was performed using viability assays, on cultures of the macrophage cell line J774, which have been used before as a model system for osteoclast survival (see, e.g., Luckman et al., 1998). The assays are based on the survival of the J774 macrophage cell line; macrophages are closely related to osteoclasts, and contain similar high levels of esterase activity.
J774 cells were plated at 10^4 cells per well in 150 μL αMEM (α Modified Eagle Medium) in 96-well plates and grown overnight. The next day, compounds were added to the cultures, and culture was continued for another 72 hours. At the end of the culture period cell survival was determined using an Alamar Blue assay as previously described (see, e.g., Nociari et al., 1998).
Alamar Blue is an oxidation-reduction sensitive indicator. The dye itself is in the oxidised state, which is blue and non-fluorescent. The dye can accept electrons from reducing species, such as NADPH and FADH, to form a reduced dye species, which is red and fluorescent. Thus the transformation from oxidised form to reduced form can be measured by fluorimetric or colourimetric means. For fluorescence measurements, 530-560 nm excitation and 590 nm emission wavelengths are typically used. For colourimetric measurements, absorbance is measured at 570 nm (reduced form) and 600 nm (oxidised form) and a simple calculation performed to determine the relative quantities of the two species.
A high ratio of the reducing species, NADPH and FADH, to the corresponding oxidised species, NADP and FAD, is an indicator that cells are proliferating and viable. A low ratio indicates cells that are quiescent or non-viable.
Briefly, Alamar Blue (Biosource International) was added undiluted to the each well (1:10 v/v, 15 μL). The plate was incubated at 37° C. for 3-4 hours and the fluorescence was measured at 570 nm, with a 25 nm bandwidth. A high reading indicated cells with normal viability, and a low reading indicates cells that have been damaged and are no longer proliferating normally. The controls gave a high fluorescence reading, indicating a high number of live, healthy cells. A potent test compound gave a low fluorescence reading. The average results for each test compound (n=5) were expressed as a percent (%) of the average control value.
Addition of Compounds. All of the compounds studied were made up as 100 mM solutions in DMSO. These stock solutions were then diluted 100 or 1000× in culture medium (αMEM). From these 1 mM or 100 μM solutions, convenient quantities (3-15 μL) were added directly to the wells so as to give the desired final compound concentration.

IC50 (osteoclast precursors): 0.2 µM
SMILES: Cc1cc(S(=O)(=O)NCCCCO)ccc1-c1ccc(F)cc1F [ABD-295, 2′,4′-Difluoro-2-methylbiphenyl-4-sulfonic acid-(4-hydroxybutyl)-amide]
IC50 [1]: 0.8 ± 0.1 µM
